Source: ChEMBL document CHEMBL1275395, “Endoperoxide carbonyl falcipain 2/3 inhibitor hybrids: toward combination chemotherapy of malaria through a single chemical entity” (J Med Chem, 2010)
*1 amine or outer side, *2 acyl side, *3 side chain or, on linkers, in order; H or OH if unused. Where a SMILES comes first, the peptide text is derived from it. [ ]: non-standard residue; d: D form. The star is where a group is joined. hPhe = N[C@@H](CCc1ccccc1)C(=O)O; Morpholide = C1CN(*)CCO1; Cbz = O=C(OCc1ccccc1)*; CO = O=C([*:1])[*:2]

Columns and labels:
Plasmodium falciparum = assay: Antimalarial activity against Plasmodium falciparum 3D7 infected in human erythrocytes after 4 hrs; assay type: functional, organism-based; conditions: 3D7, 4 h
[1] = Inhibition of Plasmodium falciparum recombinant falcipain-2
[2] = Inhibition of Plasmodium falciparum recombinant falcipain-3

Row | Compound | IC50 (Plasmodium falciparum) [nM] | IC50 [1] [nM] | IC50 [2] [nM]
1 | CCOC[C@@]1([C@H](CCc2ccccc2)NC(=O)[C@H](CC(C)C)NC(=O)OCc2ccccc2)OOC2(O1)C1CC3CC(C1)CC2C3 (stereo partly drawn) | 572 | < 8670 | < 24200
2 | COC[C@@]1([C@@H](NC(=O)[C@H](CC(C)C)NC(=O)OCc2ccccc2)c2ccccc2)OOC2(O1)C1CC3CC(C1)CC2C3 (stereo partly drawn) | 2560 | 1200 | 44200
3 | CC(C)C[C@H](NC(=O)N1CCOCC1)C(=O)N[C@H](C=O)CCc1ccccc1 ({Morpholide-CO}-Leu-[hPhe]-aldehyde) | 9.3 | 16.3 | 215
4 | CCOC[C@@]1([C@@H](NC(=O)[C@H](CC(C)C)NC(=O)OCc2ccccc2)c2ccccc2)OOC2(O1)C1CC3CC(C1)CC2C3 (stereo partly drawn) |  | < 8580 | > 25000
5 | CC(C)C[C@@H](C(=O)N[C@@H](CCc1ccccc1)[C@H]1OOC2(O1)C1CC3CC(C1)CC2C3)N1CCOCC1 (stereo partly drawn) | 35.3 | 510 | 332
6 | CC(C)C[C@H](NC(=O)OCc1ccccc1)C(=O)N[C@@H](CCc1ccccc1)[C@H]1OOC2(O1)C1CC3CC(C1)CC2C3 (stereo partly drawn) | 55.5 | 425 | 947
7 | COC[C@@]1([C@H](CCc2ccccc2)NC(=O)[C@H](CC(C)C)NC(=O)OCc2ccccc2)OOC2(O1)C1CC3CC(C1)CC2C3 (stereo partly drawn) | 582 | < 11500 | < 19800

Results, then the molecule that gave them:

Row | IC50 (Plasmodium falciparum) [nM] | IC50 [1] [nM] | IC50 [2] [nM] | Compound
8 | 27.1 | 1.4 | 199 | CC(C)C[C@H](NC(=O)OCc1ccccc1)C(=O)N[C@H](C=O)CCc1ccccc1 (Cbz-Leu-[hPhe]-aldehyde)
9 | 310 | 438 | 222 | CC(C)C[C@H](NC(=O)OCc1ccccc1)C(=O)N[C@@H](CCc1ccccc1)C(=O)COc1ccccc1
10 | > 10000 | 1960 | 21600 | CCOCC(=O)[C@H](Cc1ccccc1)NC(=O)[C@H](CC(C)C)NC(=O)OCc1ccccc1
11 | > 10000 | 7150 | 5600 | COCC(=O)[C@H](CCc1ccccc1)NC(=O)[C@H](CC(C)C)NC(=O)OCc1ccccc1
12 | > 10000 | 1970 | 8610 | COCC(=O)[C@H](Cc1ccccc1)NC(=O)[C@H](CC(C)C)NC(=O)OCc1ccccc1
13 | > 10000 | 2050 | 853 | CCOCC(=O)[C@H](CCc1ccccc1)NC(=O)[C@H](CC(C)C)NC(=O)OCc1ccccc1
